Source: PubChem BioAssay (NCI)
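Cells were grown in 96-well plates and exposed to each compound for 48 hours at five concentrations; endpoints were interpolated linearly between bracketing concentrations, or set to the highest concentration if not reached. GI50 marks 50% less growth. TGI: total growth inhibition.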

Tests used:
Experiment in all cases: growth of human tumour cells (NCI), 48 h
[1] = tested on: NCI/ADR-RES ovarian
[2] = tested on: MCF7 breast
[3] = tested on: DLD-1 colon
[4] = tested on: LXFL 529 NSCLC
[5] = tested on: KM20L2 colon
[6] = tested on: DMS 273 small cell lung
[7] = tested on: HOP-18 NSCLC
[8] = tested on: XF 498 CNS

Structure (SMILES) | GI50 [1] [µM] | TGI [1] [µM] | GI50 [2] [µM] | TGI [2] [µM] | TGI [3] [µM] | TGI [4] [µM] | TGI [5] [µM] | TGI [6] [µM] | TGI [7] [µM] | TGI [8] [µM]
COc1ccc(CCNc2nc3ccccc3c3[nH]c4ccccc4c23)cc1OC | 4.73 | 26 | 2.2 | 5.32 | – | – | – | – | – | –
CC(=O)NNc1nc(C)c(C(/C=C/c2ccc(/C=C/C(=N\NC(=O)c3ccncc3)c3sc(NNC(C)=O)nc3C)cc2)=N/NC(=O)c2ccncc2)s1 | – | – | – | – | > 100 | > 100 | > 100 | – | – | –
COc1ccc(/C=C2/SC(=Nc3c(C)nn(-c4ccccc4)c3N)NC2=O)cc1 | 4.36 | 39.4 | 3.08 | 31.5 | – | – | – | – | – | –
CC(C)(O)Cn1c(=O)c(Oc2ccc(F)cc2F)cc2cnc(NC3CCOCC3)nc21 | > 25 | > 25 | > 25 | > 25 | – | – | – | – | – | –
COc1cc(-c2cc(-c3ccc(N(C)C)cc3)nc(N3CCC(O)CC3)c2C#N)cc(OC)c1OC | 0.35 | > 19.8 | 0.626 | 3.42 | – | – | – | – | – | –
Cc1ccc(S(=O)(=O)NCCCN(CCCNS(=O)(=O)c2ccc(C)cc2)S(=O)(=O)c2ccc(C)cc2)cc1 | – | – | – | – | > 100 | > 100 | > 100 | > 100 | – | –
CCc1nc(N)nc(N)c1-c1ccc(Cl)cc1 | 5.93 | > 100 | 15.3 | > 100 | – | – | – | – | – | –
O=c1[nH]nc(-c2ccccc2)c(-c2ccccc2)c1-n1nc(-c2ccccc2)c2ccccc2c1=O | – | – | – | – | > 100 | > 100 | – | > 100 | > 100 | –
COc1ccccc1/C=C1\COc2ccc(O)c(O)c2C1=O | 1.88 | 6.64 | 0.36 | > 100 | – | – | – | – | – | –
CCOC(=O)c1cnc2ccc(Cl)cc2c1NCCCN(C)C | 25 | > 100 | 19.4 | 75.6 | – | – | – | – | – | –
NC(=O)C/C=C/CC(N)=O | – | > 100 | – | > 100 | – | – | – | – | – | –
COc1ccc([C@H]2c3cc(OC)c(OC)cc3C=C(C=O)C2CO)cc1OC (stereo partly drawn) | 23.1 | > 100 | 3.73 | > 100 | – | – | – | – | – | –
COC(=O)C1=CC(=O)C(C(=O)Nc2ccc(OC)cc2)C(c2ccccc2)O1 (stereo not drawn) | – | – | – | – | > 100 | 62.4 | > 100 | > 71 | – | –
COc1cc[c]([Hg][Cl])cc1 | 11.7 | > 100 | 1.01 | 4.53 | – | – | – | – | – | –
Clc1ccc(Cl)c(N/N=C\c2c[nH]c3ccccc23)c1 | 15.6 | 34.8 | > 100 | > 100 | – | – | – | – | – | –
CC(=O)O[C@@H]1C=CC(=O)C2(CC(=O)O[C@@H]2/C=C(\C)CCC=C(C)C)C1 (stereo partly drawn) | 0.223 | 0.827 | 0.0772 | 0.599 | – | – | – | – | – | –
CN(C)C1(C#N)CCC2(CC1)OCCO2 | – | – | – | – | – | – | > 100 | > 100 | – | –
CN(C)CCCn1cnc2ncccc2c1=O | – | – | – | – | > 100 | > 100 | – | > 100 | – | > 100
Cc1cc2c(-c3nc4ccccc4[nH]3)c(O)c(O)cc2c(O)c1-c1c(C)cc2c(-c3nc4ccccc4[nH]3)c(O)c(O)cc2c1O | – | – | 0.018 | 6.84 | – | – | – | – | – | –

Structure (SMILES) | GI50 [1] [µM] | TGI [1] [µM] | GI50 [2] [µM] | TGI [2] [µM] | TGI [3] [µM] | TGI [4] [µM] | TGI [5] [µM] | TGI [6] [µM] | TGI [7] [µM] | TGI [8] [µM]
O=C(Nc1ccc(Cl)c(Cl)c1)Nc1ccc(Cl)c([N+](=O)[O-])c1 | 1.02 | 6.09 | 0.795 | 8.32 | – | – | – | – | – | –
O=c1c(Cl)nsnc1Cl | – | > 100 | – | 31.5 | – | – | – | – | – | –
COc1ccc(NC(=O)CC/C(CC(=O)c2ccco2)=N/Nc2ccc([N+](=O)[O-])cc2[N+](=O)[O-])cc1 | – | – | – | – | – | > 100 | > 100 | > 100 | > 100 | 81.4
C=CCCc1cc(OC)ccc1CN(C)C(C)(C)CO | – | – | – | – | > 100 | – | > 100 | > 100 | > 100 | –
CCOP1(=O)OCC2OC(n3cnc4c(N)ncnc43)C(O)C2O1 (stereo not drawn) | – | > 100 | – | > 100 | – | – | – | – | – | –
C#Cc1cccc(NC(=O)Nc2ccccc2NC(=O)CCl)c1 | 23.4 | 75.5 | 16.6 | > 82.5 | – | – | – | – | – | –
CN1CCC(O)C(CNC23CC4CC(CC(C4)C2)C3)C1 (stereo not drawn) | – | – | – | – | > 100 | > 100 | > 100 | > 100 | – | > 100
COc1ccc(C(=O)c2cc3c(N)c(C(=O)Nc4cccc(Cl)c4)sc3nc2C)cc1 | 1.49 | > 33.3 | 1.25 | > 33.3 | – | – | – | – | – | –
CCOC(=O)C(C(=O)c1ccccc1-c1ccccc1C(=O)O)=P(c1ccccc1)(c1ccccc1)c1ccccc1 | – | – | – | – | – | > 100 | 59.5 | > 100 | – | 50.2
CC[C@]1(O)C[C@@H]2CN(Cc3c([nH]c4ccccc34)[C@@](C(=O)OC)(c3cc4c(cc3OC)N(C)[C@H]3[C@@](O)(C(=O)OC)[C@H](OC(C)=O)[C@]5(CC)[C@@H]6C[C@@H]6CN6CC[C@]43[C@@H]65)C2)C1 | > 4.38 | > 4.38 | 0.0181 | > 4.38 | – | – | – | – | – | –
COC(=O)C1=C(O)C(O)=C(C(=O)OC)CC1 | – | – | – | – | > 100 | > 100 | – | > 100 | > 100 | > 100
COc1ccc(C(=O)/C=C/c2ccc(Cl)cc2)cc1S(N)(=O)=O | 3.64 | 24 | 1.3 | 6.77 | – | – | – | – | – | –
COc1ccc(NC(=O)c2ccc(NC3=C(Cl)C(=O)N(Cc4ccccc4)C3=O)cc2)cc1 | 11.9 | 38.7 | 7.9 | > 100 | – | – | – | – | – | –
CCc1cc(C(N)=O)ccc1-n1nc(C(C)C)c2c(-n3cnc(-c4cnn(C)c4)c3)ccnc21 | 32.8 | > 100 | 0.443 | > 100 | – | – | – | – | – | –
O=C1CCC/C=C\C[C@H]2C=C(Cl)C(=O)/C2=C/C[C@H](CCCCC(F)(F)F)OC(=O)CCC/C=C\C[C@H]2C=C(Cl)C(=O)/C2=C/C[C@H](CCCCC(F)(F)F)O1 | 1.57 | 7.14 | 0.176 | 0.973 | – | – | – | – | – | –
Cn1cc(-c2ccc3cc(-c4ccc(CC(=O)Nc5cc(C(C)(C)C)nn5C)cc4)cnc3c2)cn1 | 0.355 | > 100 | 0.496 | > 100 | – | – | – | – | – | –
O=C(CC1Sc2ccccc2NC1=O)Nc1cccc(Cl)c1 (stereo not drawn) | – | – | – | – | > 100 | > 100 | > 100 | > 100 | – | 86.5
O=C(Nc1nc2ncn(CCOC(=O)c3ccccc3)c2c(=O)[nH]1)c1ccccc1 | – | > 100 | – | > 100 | – | > 100 | 83.3 | – | > 100 | 55.7
